Data taken from US8962664B2, “Selective glycosidase inhibitors and uses thereof” (Simon Fraser University, priority 2006, dated 2015).
Entries after “also recorded” stand apart in the source; their conditions may differ.

Legend:
Format in all cases: in vivo, Sprague-Dawley rats
[1] = test system: O-GlcNAc levels in cardiac tissue; test: Elevation of rat cardiac O-GlcNAc levels (IV); conditions: rats, IV 50 mg/kg, 0 to 20 h, Western blot
Protocol: The effect of intravenous (IV) administration of (3aR,5R,6S,7R,7aR)-2-(ethylamino)-5-(hydroxymethyl)-5,6,7,7a-tetrahydro-3aH-pyrano[3,2-d]thiazole-6,7-diol (Compound 25, hereinafter referred to as NAG-AE) on O-GlcNAc levels in cardiac tissue in Sprague-Dawley rats was measured. Animals were obtained from Charles-River as 5-week old healthy male Sprague-Dawley rats. Animals were given one week to acclimatize and at six weeks of age the appropriate treatment was initiated. Nine animals were given intravenous tail vein injections of 50 mg/kg NAG-AE; following injection, one animal was sacrificed at each of the following time points: 0, 1, 2, 4, 7, 10, 13, 16, and 20 h. In addition, one animal was given an injection of vehicle (PBS—pH 7.4) and sacrificed two hours later for use as a control. Tissues were removed from sacrificed animals as quickly as possible to minimize post-mortem delay. The hearts from each animal were immediately frozen in liquid nitrogen and stored at −80° C. until further use. Homogenization of the cardiac tissue was carried out by manual grinding followed by homogenization in cell lysis buffer (50 mM Tris, pH 8.0, 1 mM PMSF, 0.1% NP-40, 1 mM NAG-Bt) using a tissue homogenizer (IKA) at 4° C. Insoluble cell debris was removed by centrifugation at 17,900×g for 20 minutes at 4° C. and the resulting supernatant was stored at −20° C. until use. […]

[2] = test system: tau phosphorylation levels in brain tissue; test: Decrease of rat brain tau phosphorylation levels (oral NAG-AE); conditions: rats, 200 mg/kg/day in drinking water for one day
Protocol: The effect of oral administration of (3aR,5R,6S,7R,7aR)-2-(ethylamino)-5-(hydroxymethyl)-5,6,7,7a-tetrahydro-3aH-pyrano[3,2-d]thiazole-6,7-diol (Compound 25, NAG-AE) on tau phosphorylation levels in brain tissue in Sprague-Dawley rats was measured. All animals were obtained from Charles-River as 5-week old healthy male Sprague-Dawley rats. Animals were given one week to acclimatize and at six weeks of age the appropriate treatment was initiated. Three animals received 200 mg/kg/day of NAG-AE in their drinking water for one day. Three additional animals received drinking water containing no NAG-AE and were used as controls. Immediately following the dosing period, all animals were sacrificed and brains were removed, stored, and processed as described in Example 29.
Western Blots. Samples were separated through 10% sodium dodecyl sulfate polyacrylamide gels (SDS-PAGE) and then transferred to nitrocellulose (Bio-Rad) membranes. Membranes were then blocked for 1 h at room temperature (RT) with 1% bovine serum albumin (BSA) in PBS containing 0.1% Tween-20 (Sigma) (PBS-T) and then subsequently probed with appropriate primary antibody delivered in 1% BSA in PBS-T for either 1 h at RT or overnight at 4° C. Membranes were then extensively washed with PBS-T, blocked again for 30 min with 1% BSA in PBS-T at RT and then probed with the appropriate HRP conjugated secondary antibody for 1 h at RT delivered in 1% BSA in PBS-T. Finally, the membranes were washed extensively and then developed with SuperSignal West Pico Chemiluminesence substrate (Pierce) and exposed to CL-XPosure Film (Pierce).
Antibodies. Mouse monoclonal α-Tau-5 which recognizes the central region of tau in a phosphorylation state independent manner was purchased from Lab Vision Corporation and used at a dilution of 1:500. Rabbit polyclonal […], and α-Tau [pS^422] recognize phosphorylated Thr-231, Ser-396, and Ser-422 respectively, and were purchased from Biosource International and used at a dilution of 1:1000. Mouse monoclonal α-O-GlcNAc (CTD110.6) which recognizes the O-GlcNAc monosaccharide modification was purchased from Covance and used at a dilution of 1:2500. Mouse monoclonal α-actin (clone AC-40) was purchased from Sigma and was used at a dilution of 1:1000.

[3] = Eight-month repeat dose toxicology study in rats: general observations and organ weights
Protocol: The toxicological effects of repeated oral administration of (3aR,5R,6S,7R,7aR)-5-(hydroxymethyl)-2-propyl-5,6,7,7a-tetrahydro-3aH-pyrano[3,2-d]thiazole-6,7-diol (NAG-Bt) to Sprague-Dawley rats over eight months was measured. All animals were obtained from Charles-River as 5-week old healthy male Sprague-Dawley rats. Animals were given one week to acclimatize and at six weeks of age the appropriate treatment was initiated. Eight animals were fed food containing 100 mg/kg/day of NAG-Bt for eight months. Eight additional animals fed with food containing no inhibitor were used as controls. […] After four months of dosing, blood and urine samples were collected from four rats in each group.
At the end of eight months, all animals were sacrificed and their organs removed and weighed.

[4] = rat, in vivo, po, 100 mg/kg/day

In the case of CCNC1=N[C@@H]2[C@@H](O)[C@H](O)[C@@H](CO)O[C@@H]2S1 [NAG-AE, (3aR,5R,6S,7R,7aR)-2-(ethylamino)-5-(hydroxymethyl)-5,6,7,7a-tetrahydro-3aH-pyrano[3,2-d]thiazole-6,7-diol], the “O-GlcNAc levels in cardiac tissue” value [1] is reported as “time-dependent elevation”, the “brain tau phosphorylation at Ser-396, Thr-231, and Ser-422” value ([2]; Western blot) is reported as “reduction; also recorded: decreases” and the “global levels of O-GlcNAc in brain” value ([2]; Western blot) is reported as “increases”. For the same compound, the “reduction of tau phosphorylation at Ser-396” value ([2]; densitometry) was about 3.1 fold, the “reduction of tau phosphorylation at Ser-422” value ([2]; densitometry) was about 1.8 fold and the “reduction of tau phosphorylation at Thr-231” value ([2]; densitometry) was about 2.7 fold.
In the case of CCCC1=N[C@@H]2[C@@H](O)[C@H](O)[C@@H](CO)O[C@@H]2S1 [NAG-Bt, (3aR,5R,6S,7R,7aR)-5-(hydroxymethyl)-2-propyl-5,6,7,7a-tetrahydro-3aH-pyrano[3,2-d]thiazole-6,7-diol], the “body weight, food consumption, water consumption, and blood glucose levels” value [3, 4] is reported as “no significant differences”, the “gross pathological abnormalities or behavioural differences” value [3, 4] is reported as “No gross pathological abnormalities or behavioural differences” and the “toxicological consequences of long-term dosing” value ([3]; rats, oral 100 mg/kg/day, eight months) is reported as “no serious toxicological consequences”.
